According to patent publication US7365080B2, “Pharmaceutical compositions comprising thieno[2,3-c]pyridine derivatives and use thereof” (Rimonyx Pharmaceuticals Ltd., priority 2003, dated 2008):

Key:
L-Selectin = target: T1, L-Selectin (Homo sapiens, UniProt P14151); test: ELISA: inhibition of L-selectin/IgG binding to immobilized heparin (Heparin-BSA); conditions: L-Selectin binding to heparin; 50 μM
T1 construct: purchased Research and Development Systems 728-LS
T1 sequence (P14151 39-332 limits assumed): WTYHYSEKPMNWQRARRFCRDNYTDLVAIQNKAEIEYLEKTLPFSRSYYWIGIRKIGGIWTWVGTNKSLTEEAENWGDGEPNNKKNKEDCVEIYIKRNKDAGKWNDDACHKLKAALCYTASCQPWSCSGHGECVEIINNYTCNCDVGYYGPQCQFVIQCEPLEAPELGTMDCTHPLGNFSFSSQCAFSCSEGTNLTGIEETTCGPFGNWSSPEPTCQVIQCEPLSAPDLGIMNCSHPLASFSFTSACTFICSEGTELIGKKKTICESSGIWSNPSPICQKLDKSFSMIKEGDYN
Description: The inhibitory effect of the compounds of the present invention can be evaluated by several methods in vitro. One assay for measuring GAG-ECAM binding, exemplified herein below, detects the binding of L selectin/IgG to immobilized heparin. Another assay utilizes immobilized L-selectin, or L-selectin fused to protein domains other than IgG. The amount of bound L-selectin is determined by an ELISA assay using, for example, a monoclonal antibody raised against L-selectin, which is conjugated to horseradish peroxidase. […] The Dregg-55 antibody was also shown to inhibit L-selectin-dependent adhesion in vitro, neutrophil accumulation in vitro and inflammation in vivo (Co M. S. et al, Immunotechnology 493: 253-266, 1999).
An in vitro assay was used to assess the ability of test compounds according to formula I to inhibit the interactions of L-selectin with HS-GAGs. The assay was suitable for determining the concentration required for 50% inhibition (IC-50) for each specific compound. In the assay, the GAG used was heparin. Thus, porcine intestinal mucosa heparin conjugated to Bovine Serum Albumin (Heparin-BSA; Sigma Cat. No. H0403) at […] in Phosphate Buffered Saline (PBS; pH 6.5) was added to a 96 well polystyrene ELISA plate (NUNC Cat. No. 442404; 0.1 ml per well) and incubated Over Night (ON) at 4° C. Following the incubation, the plate was washed thoroughly, by immersion, with de-ionized water and PBS (pH 6.5). The ELISA plate was then blocked with BSA (ICN Cat. No.160069, 3%, 200 μl per well) for 1 hour at Room Temperature (RT). Following blocking, the plate was washed with de-ionized water, and then with PBS (pH 6.5) containing Tween 20 (Sigma Cat. No. P-1379, 0.05%). Compounds were synthesized or purchased from ChemDiv Labs (San Diego, Calif.), dissolved in DMSO, diluted in PBS and added to the wells at various concentrations in the range of 0.01 to 300 μM. Recombinant Human L-Selectin/IgG (Research and Development Systems Cat. No.728-LS) dissolved in PBS supplemented with BSA (0.1%) and calcium chloride (1 mM) was added to the ELISA plate (100 μl per well) and incubated for 60 minutes at RT with shaking. Following incubation, the plate was washed with de-ionized water and three times with PBS (pH 6.5) containing Tween 20. Anti-Human IgG Peroxidase Conjugate (1:5000; Sigma Product No. A8667) diluted in PBS supplemented with BSA (0.1%) and calcium chloride (1 mM) was added to the ELISA plate (100 μl per well) and incubated for 30 minutes at RT with shaking. The plate was then washed with de-ionized water and three times with PBS (pH 6.5) containing Tween 20. The peroxidase substrate cromogen, TMB (Dako Cat. No. S1599) was added (100 μl per well) to the ELISA plate and incubated at room temperature. After 15 minutes ELISA Stop Solution (hydrochloric acid 1N, sulfuric acid 3N) was added (200 μl per well) to stop the peroxidase catalyzed colorimetric reaction. The Optical Density (OD) of the samples was measured at 450 nm using an ELISA plate reader (Dynatech MR5000). Data were analyzed with Graphpad Prism software and IC-50 values were established. The P-selectin assay was carried out in a similar fashion, except that Recombinant Human P-Selectin/IgG (Research and Development Systems Cat.No.137-PS) was used.

Mice = test: Delayed-type hypersensitivity (oxazolone, ear-swelling test); format: in vivo, mouse; conditions: 3 mg/kg iv, 24 hours after challenge
Description: Mice (15 animals per group) were sensitized by topical application of a 2% oxazolone (4-ethoxymethylene-2-phenyl-2-oxazoline-5-one; Sigma, St Louis, Mo.) solution in acetone/olive oil (4:1 vol/vol) to shaved abdomen (50 μl) and to each paw (5 μl) (Lange-Asschenfeldt B. et al., Blood 99:538-545, 2002). Five days after sensitization, right ears were challenged by topical application of 10 μl of a 1% oxazolone solution, whereas left ears were treated with vehicle alone. Compounds were administered 1 hr prior to challenge. The extent of inflammation was measured 24 hours after challenge, using the mouse ear-swelling test. The unpaired Student t test was used for statistical analyses.

BALB/c mice [1] = test: Thioglycollate-induced leukocyte and neutrophil infiltration into mouse peritoneum; format: in vivo
Description: The ability of compounds of the present invention to reduce leukocyte migration to sites of acute inflammation was evaluated in BALB/c mice using a thioglycolate-induced model of peritonitis. In this animal model, interactions of L- and P-selectin with HS-GAGs have been implicated in neutrophil infiltration (Nelson, R. M., 82:3253-3258, 1993; Xie, X. et al., J. Biol. Chem., 275:34818-34825, 2000).
BALB/c mice (6 weeks old, ˜20 g in weight, 15 mice/group) received intraperitoneal injection of an inhibitor compound in 0.2 ml DMSO/Tween/sterile saline 1 hour before administration of thioglycollate (Sigma). Control groups received vehicle and sham controls received no thioglycollate. Mice were injected intraperitoneally with 1 ml of 3% thioglycollate broth (Xie, X. et al., J. Biol. Chem., 275, 34818-34825, 2000). Mice were sacrificed after 3 hours, and the peritoneal cavities were ravaged with […] of ice-cold saline containing 2 mM EDTA to prevent clotting. After red blood cell lysis, leukocytes were counted in a hemocytometer. Neutrophils were counted after staining with Türck. Data was expressed as mean±SEM, and statistical analysis was performed by Student t test. A value of P<0.05 was taken to denote statistical significance.

BALB/c mice [2] = test: Carrageenan-induced paw edema; format: in vivo, mouse; conditions: i.p. administration 60 min before carrageenan
Description: Acute edema was induced in the left hind paw of Balb/c mice by injecting 0.02 ml of freshly prepared solution of 2% carrageenan after 60 min of test compound administration (Torres, S. R. et al., European Journal of Pharmacology 408: 199-211, 2000). The right paw received 0.02 ml of saline, which served as a control. Carrageenan was injected under the plantar region of right hind paw and the paw thickness was measured at 2, 4 and 24 hours after carrageenan challenge using a Mitutoyo engineer's micrometer expressed as the difference between right and left pad as mean±SEM. […] A dose response curve for Compound no.

[3] = system: immobilized heparin / L-selectin/IgG; test: Assay 1: direct interaction with heparin, pre-incubation versus co-incubation with L-selectin; format: binding; conditions: compound 0.1-200 μM, 90 min, washed before L-selectin/IgG
Description: Inhibitor Compounds at final concentration 0.1-200 μM were incubated in the ELISA plate for 90 min, and then washed with incubation buffer. After washing, L-selectin/IgG was added to the wells pre-incubated with compounds. At the same time, in separate control wells, L-selectin was co-incubated with inhibitor Compounds for 90 min. Following the incubation, L-selectin bound to the plate was quantified by antibody conjugated to Horse Radish Peroxidase and OD measurement as performed as described in Example 5.

## CCCCN(CC)S(=O)(=O)c1ccc(C(=O)Nc2sc3c(c2-c2nc4ccccc4s2)CCN(CC)C3)cc1 [Compound 5, 2-[[4-[(ethylbutylamino)sulfonyl]benzoyl]amino]-3-(benzothiazol-2-yl)-6-ethyl-4,5,6,7-tetrahydrothieno[2,3-c]pyridine]
L-Selectin
  inhibition at 50 µM: 62%
Mice
  DTH, % of control value: 56 % of control value
BALB/c mice [1]; 2 mg/kg intraperitoneal
  reduction of leukocyte infiltration: 25%
BALB/c mice [1]; 10 mg/kg intraperitoneal
  reduction of leukocyte infiltration: 50%
BALB/c mice [1]; 50 mg/kg intraperitoneal
  reduction of leukocyte infiltration: 75%
BALB/c mice [1]; FIG. 4, 2, 10, 50 mg/kg
  neutrophil infiltration in mouse peritonitis (in words): dose-dependent inhibition
BALB/c mice [1]; intraperitoneal, 1 hour before thioglycollate, 3 hours
  leukocyte migration into the peritoneal cavity (in words): inhibited efficiently
BALB/c mice [2]
  carrageenan induced paw edema (in words): anti-inflammatory properties
[3]
  level of inhibition of L-selectin binding to heparin, pre-incubation versus co-incubation: same level of inhibition
